In patent publication US6737383B1, “Herbicidal oxadiazolidines” (priority 1999, dated 2004):

Assays:
[1] = system: bedstraw; experiment: Test B pre/postemergence bedstraw; format: in vivo, Galium aparine
Outline: (§1)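 Herbicidal effect was estimated by eye on a ten-point control scale after plants spent twelve to sixteen days in a greenhouse following soil or foliar treatment. Foliar sprays targeted plants at one to four leaves; all doses were formulated in a non-phytotoxic solvent with surfactant.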

[2] = system: blackgrass; experiment: Test B pre/postemergence blackgrass; format: in vivo, Alopecurus myosuroides
Outline: as §1

[3] = system: surinam grass; experiment: Test B pre/postemergence surinam grass; format: in vivo, Brachiaria decumbens
Outline: as §1

[4] = system: cocklebur; experiment: Test B pre/postemergence cocklebur; format: in vivo, Xanthium strumarium
Outline: as §1

[5] = system: corn; experiment: Test B pre/postemergence corn; format: in vivo, Zea mays
Outline: as §1

[6] = system: crabgrass; experiment: Test B pre/postemergence crabgrass; format: in vivo, Digitaria sanguinalis
Outline: as §1

[7] = system: giant foxtail; experiment: Test B pre/postemergence giant foxtail; format: in vivo, Setaria faberii
Outline: as §1

[8] = system: morningglory; experiment: Test B pre/postemergence morningglory; format: in vivo, Ipomoea hederacea
Outline: as §1

[9] = system: pigweed; experiment: Test B pre/postemergence pigweed; format: in vivo, Amaranthus retroflexus
Outline: as §1

[10] = system: rape; experiment: Test B pre/postemergence rape; format: in vivo, Brassica napus
Outline: as §1

[11] = system: soybean; experiment: Test B pre/postemergence soybean; format: in vivo, Glycine max
Outline: as §1

[12] = system: sugar beet; experiment: Test B pre/postemergence sugar beet; format: in vivo, Beta vulgaris
Outline: as §1

[13] = system: velvetleaf; experiment: Test B pre/postemergence velvetleaf; format: in vivo, Abutilon theophrasti
Outline: as §1

[14] = system: wheat; experiment: Test B pre/postemergence wheat; format: in vivo, Triticum aestivum
Outline: as §1

[15] = system: wild oat; experiment: Test B pre/postemergence wild oat; format: in vivo, Avena fatua
Outline: as §1

[16] = system: purple nutsedge; experiment: Test B pre/postemergence purple nutsedge; format: in vivo, Cyperus rotundus
Outline: as §1

[17] = Postemergence, Rate 62 g/ha, scale 0 to 10, 0 is no effect, 10 is complete control
[18] = Postemergence, Rate 125 g/ha, scale of 0 to 10 where 0 is no effect and 10 is complete control
[19] = Postemergence, Rate 500 g/ha, scale 0 (no effect) to 10 (complete control)
[20] = Preemergence, Rate 250 g/ha, scale 0 (no effect) to 10 (complete control)
[21] = Rate 62 g/ha, Preemergence, scale 0 to 10
[22] = Rate 125 g/ha, Preemergence, scale 0 to 10 (0 no effect, 10 complete control)
[23] = Rate 500 g/ha, Preemergence, scale 0 to 10 (0 no effect, 10 complete control)
[24] = Rate 250 g/ha, Postemergence, scale 0 to 10, 0 is no effect, 10 is complete control

With C#CCn1c(=O)on(C(=O)N(c2ccc(F)cc2F)C(C)C)c1=O [Compound 764] as the compound, how does the “Plant response rating, Bedstraw” value [1, 17] read?
Its value is 0.

What about the “Bedstraw plant response rating” value [1, 18] of the same compound?
The value was 5.

And the “Bedstraw plant response rating” value [1, 19]?
The value was 5.

And the “Bedstraw plant response rating” value [1, 20]?
Its value is 5.

And the “Bedstraw plant response rating” value [1, 21]?
The value was 0.

What about the “Bedstraw plant response rating” value [1, 22] of the same compound?
Its value is 5.

And the “Bedstraw plant response rating” value [1, 23]?
Its value is 8.

And the “Plant response rating, Blackgrass” value [2, 17]?
Its value is 3.

And the “Blackgrass plant response rating” value [2, 18]?
The value was 6.

What about the “Blackgrass plant response rating” value [2, 19] of the same compound?
The value was 8.

What about the “Blackgrass plant response rating” value [2, 20] of the same compound?
The value was 8.

And the “Blackgrass plant response rating” value [2, 21]?
Its value is 7.

And the “Blackgrass plant response rating” value [2, 22]?
The value was 7.

And the “Blackgrass plant response rating” value [2, 24]?
Its value is 6.

What about the “Blackgrass plant response rating” value [2, 23] of the same compound?
The value was 9.

What about the “Plant response rating, B. signalgrass” value [3, 17] of the same compound?
The value was 0.

And the “B. signalgrass plant response rating” value [3, 18]?
Its value is 0.

And the “B. signalgrass plant response rating” value ([3]; Preemergence, Rate 62 g/ha, scale of 0 to 10 where 0 is no effect and 10 is complete control)?
The value was 8.

And the “B. signalgrass plant response rating” value [3, 20]?
Its value is 9.

What about the “B. signalgrass plant response rating” value [3, 22] of the same compound?
Its value is 7.

What about the “B. signalgrass plant response rating” value [3, 24] of the same compound?
The value was 2.

What about the “B. signalgrass plant response rating” value ([3]; Rate 500 g/ha, Postemergence, scale 0 to 10, 0 is no effect, 10 is complete control) of the same compound?
Its value is 3.

What about the “B. signalgrass plant response rating” value [3, 23] of the same compound?
Its value is 10.

What about the “Plant response rating, Cocklebur” value [4, 17] of the same compound?
Its value is 0.

What about the “Cocklebur plant response rating” value [4, 18] of the same compound?
Its value is 0.

And the “Cocklebur plant response rating” value [4, 19]?
Its value is 5.

What about the “Cocklebur plant response rating” value [4, 20] of the same compound?
The value was 0.

And the “Cocklebur plant response rating” value [4, 21]?
Its value is 0.

What about the “Cocklebur plant response rating” value [4, 24] of the same compound?
Its value is 2.

What about the “Cocklebur plant response rating” value [4, 23] of the same compound?
The value was 8.

What about the “Plant response rating, Corn” value [5, 17] of the same compound?
Its value is 0.

And the “Corn plant response rating” value [5, 18]?
Its value is 0.

And the “Corn plant response rating” value [5, 19]?
Its value is 4.

And the “Corn plant response rating” value [5, 20]?
The value was 6.

What about the “Corn plant response rating” value [5, 21] of the same compound?
The value was 0.

And the “Corn plant response rating” value [5, 22]?
The value was 0.

And the “Corn plant response rating” value [5, 24]?
Its value is 0.

What about the “Corn plant response rating” value [5, 23] of the same compound?
The value was 9.

What about the “Plant response rating, Crabgrass” value [6, 17] of the same compound?
Its value is 0.

And the “Crabgrass plant response rating” value [6, 18]?
Its value is 6.

And the “Crabgrass plant response rating” value [6, 19]?
The value was 9.

What about the “Crabgrass plant response rating” value [6, 20] of the same compound?
The value was 10.

And the “Crabgrass plant response rating” value [6, 21]?
Its value is 10.

And the “Crabgrass plant response rating” value [6, 22]?
Its value is 10.

What about the “Crabgrass plant response rating” value [6, 24] of the same compound?
The value was 9.

And the “Crabgrass plant response rating” value [6, 23]?
The value was 10.

And the “Plant response rating, Giant foxtail” value [7, 17]?
Its value is 3.

And the “Giant foxtail plant response rating” value [7, 18]?
Its value is 7.

What about the “Giant foxtail plant response rating” value [7, 19] of the same compound?
Its value is 8.

And the “Giant foxtail plant response rating” value [7, 20]?
The value was 10.

What about the “Giant foxtail plant response rating” value [7, 21] of the same compound?
The value was 10.

And the “Giant foxtail plant response rating” value [7, 22]?
The value was 10.

What about the “Giant foxtail plant response rating” value [7, 24] of the same compound?
The value was 8.

And the “Giant foxtail plant response rating” value [7, 23]?
The value was 10.

What about the “Plant response rating, Morningglory” value [8, 17] of the same compound?
The value was 1.

And the “Morningglory plant response rating” value [8, 18]?
The value was 1.

What about the “Morningglory plant response rating” value [8, 19] of the same compound?
Its value is 5.

And the “Morningglory plant response rating” value [8, 20]?
Its value is 0.

And the “Morningglory plant response rating” value [8, 21]?
Its value is 0.

And the “Morningglory plant response rating” value [8, 24]?
The value was 2.

And the “Morningglory plant response rating” value [8, 23]?
The value was 2.

And the “Plant response rating, Redroot pigweed” value [9, 17]?
The value was 0.

What about the “Redroot pigweed plant response rating” value [9, 18] of the same compound?
The value was 5.

And the “Redroot pigweed plant response rating” value [9, 19]?
Its value is 7.

What about the “Redroot pigweed plant response rating” value [9, 20] of the same compound?
Its value is 10.

What about the “Redroot pigweed plant response rating” value [9, 21] of the same compound?
Its value is 9.

And the “Redroot pigweed plant response rating” value [9, 22]?
The value was 10.

What about the “Redroot pigweed plant response rating” value [9, 24] of the same compound?
Its value is 7.

And the “Redroot pigweed plant response rating” value [9, 23]?
Its value is 10.

And the “Plant response rating, Rape” value [10, 17]?
The value was 0.

What about the “Rape plant response rating” value [10, 18] of the same compound?
The value was 0.

What about the “Rape plant response rating” value [10, 19] of the same compound?
The value was 7.

And the “Rape plant response rating” value [10, 20]?
Its value is 9.

And the “Rape plant response rating” value [10, 21]?
The value was 0.

And the “Rape plant response rating” value [10, 22]?
Its value is 0.

What about the “Rape plant response rating” value [10, 24] of the same compound?
The value was 3.

And the “Rape plant response rating” value [10, 23]?
Its value is 10.

And the “Plant response rating, Soybean” value [11, 17]?
The value was 1.

And the “Soybean plant response rating” value [11, 19]?
Its value is 4.

And the “Soybean plant response rating” value [11, 20]?
The value was 3.

What about the “Soybean plant response rating” value [11, 21] of the same compound?
The value was 0.

What about the “Soybean plant response rating” value [11, 22] of the same compound?
Its value is 0.

What about the “Soybean plant response rating” value [11, 24] of the same compound?
The value was 3.

What about the “Soybean plant response rating” value [11, 23] of the same compound?
Its value is 5.

And the “Plant response rating, Sugarbeets” value [12, 17]?
Its value is 0.

What about the “Sugarbeets plant response rating” value [12, 19] of the same compound?
The value was 7.

What about the “Sugarbeets plant response rating” value [12, 20] of the same compound?
Its value is 5.

And the “Sugarbeets plant response rating” value [12, 21]?
Its value is 0.

And the “Sugarbeets plant response rating” value [12, 22]?
Its value is 0.

And the “Sugarbeets plant response rating” value [12, 24]?
Its value is 3.

And the “Sugarbeets plant response rating” value [12, 23]?
The value was 8.

And the “Plant response rating, Velvetleaf” value [13, 17]?
The value was 0.

What about the “Velvetleaf plant response rating” value [13, 19] of the same compound?
The value was 4.

What about the “Velvetleaf plant response rating” value [13, 20] of the same compound?
Its value is 5.

And the “Velvetleaf plant response rating” value [13, 21]?
The value was 3.

And the “Velvetleaf plant response rating” value [13, 22]?
The value was 5.

And the “Velvetleaf plant response rating” value [13, 24]?
Its value is 4.

And the “Velvetleaf plant response rating” value [13, 23]?
Its value is 8.

What about the “Plant response rating, Wheat” value [14, 17] of the same compound?
Its value is 0.

What about the “Wheat plant response rating” value [14, 21] of the same compound?
Its value is 0.

And the “Wheat plant response rating” value [14, 22]?
Its value is 3.

And the “Wheat plant response rating” value [14, 24]?
Its value is 7.

What about the “Wheat plant response rating” value [14, 23] of the same compound?
The value was 7.

What about the “Plant response rating, Wild oats” value [15, 17] of the same compound?
Its value is 0.

And the “Wild oats plant response rating” value [15, 19]?
The value was 3.

And the “Wild oats plant response rating” value [15, 20]?
The value was 6.

And the “Wild oats plant response rating” value [15, 21]?
The value was 0.

What about the “Wild oats plant response rating” value [15, 22] of the same compound?
The value was 3.

What about the “Wild oats plant response rating” value [15, 24] of the same compound?
The value was 2.

And the “Wild oats plant response rating” value [15, 23]?
The value was 7.

What about the “Plant response rating, Nutsedge” value [16, 17] of the same compound?
Its value is 0.

What about the “Nutsedge plant response rating” value [16, 18] of the same compound?
The value was 0.

What about the “Nutsedge plant response rating” value [16, 19] of the same compound?
Its value is 3.

What about the “Nutsedge plant response rating” value [16, 20] of the same compound?
The value was 0.

And the “Nutsedge plant response rating” value [16, 21]?
Its value is 0.

And the “Nutsedge plant response rating” value [16, 22]?
Its value is 0.

What about the “Nutsedge plant response rating” value [16, 24] of the same compound?
Its value is 0.

What about the “Nutsedge plant response rating” value [16, 23] of the same compound?
Its value is 4.
